The values that follow are results of earlier work, collected in US7659260B2, “Tamponade compositions and methods for retinal repair” (priority 2005, dated 2010).

Each structure is given as a SMILES string.

The conditions of data set [1]: at 25° C.
The conditions of data set [2]: reportedly; unless ingested in very large amounts.

`[2H]O[2H]` [Heavy water, deuterium-containing heavy water (D2O)]: the relative density in data set [1] is reported as 1.1044. Besides, in data set [2], the toxicity entry is “non-toxic, unless ingested in very large amounts”.
